What all share (assay type): biochemical
Assay [1] deals with T1, Human recombinant PDE10A (hPDE10A) (Homo sapiens, UniProt Q9Y233).
T1 construct: His tag (inferred from metal chelate purification); made in house; host or cells: Sf9 insect cells (baculovirus)
The assay is described as follows: In vitro assay PDE10A, human clone (SPA, 3H-cAMP hydrolysis). The method, then:
Rat recombinant PDE10A (rPDE10A2) was expressed in Sf9 cells using a recombinant rPDE10A baculovirus construct. […] Tested compounds were dissolved and diluted in 100% DMSO to a concentration 100 fold of the final concentration in the assay. Human recombinant PDE10A ([…]) was expressed in Sf9 cells using a recombinant hPDE10A baculovirus that was made and amplified in house. […] Compound dilutions (0.4 μl) were added in 384 well plates to 20 μl of incubation buffer (50 mM Tris pH 7.8, 8.3 mM MgCl2, 1.7 mM EGTA). 10 μl of rPDE10A or hPDE10A enzyme in incubation buffer was added and the reaction was started by addition of 10 μl substrate to a final concentration of 60 nM cAMP and 0.008 μCi ^3H-cAMP. The reaction was incubated for 60 minutes at room temperature. […] After sedimentation of the beads during 30 minutes the radioactivity was measured in a Perkin Elmer Topcount scintillation counter and results were expressed as cpm. For blanc values the enzyme was omitted from the reaction and replaced by incubation buffer. Control values were obtained by addition of a final concentration of 1% DMSO instead of compound.

Assay [2] has as its target T2, Human recombinant PDE3A (hPDE3A) (Homo sapiens, UniProt Q14432).
T2 construct: purchased Scottish Biomedical; host or cells: Sf9 insect cells
Briefly: In vitro assay PDE3A (SPA, 3H-cAMP hydrolysis).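 As to all read-outs here: the method names PDE3A and the table heading PDE3B.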 Particulars: for IC50: hPDE3B pIC50, read-out: pIC50 (converted); for Emax: read-out: hPDE3B Emax, read-out: Emax. The procedure: Human recombinant PDE3A (hPDE3A) was supplied as a partially purified insect cell lysate by Scottish Biomedical, it was cloned from human brain and expressed in Sf9 cells. Tested compounds were dissolved and diluted in 100% DMSO to a concentration 100 fold of the final concentration in the assay. Compound dilutions (0.4 μl) were added in 384 well plates to 20 μl of incubation buffer (50 mM Tris pH 7.8, 8.3 mM MgCl2, 1.7 mM EGTA). 10 μl of hPDE3A enzyme in incubation buffer was added and the reaction was started by addition of 10 μl substrate to a final concentration of 0.4 μM cAMP and 2.4 μCi/ml [^3H]-cAMP. The reaction was incubated for 60 min at room temperature. […] After sedimentation of the beads during 30 min the radioactivity was measured in a Perkin Elmer Topcount scintillation counter and results were expressed as cpm. For blanc values the enzyme was omitted from the reaction and replaced by incubation buffer. Control values were obtained by addition of a final concentration of 1% DMSO instead of compound.

Assay [3] addresses T3, Human recombinant PDE2A (hPDE2A) (Homo sapiens, UniProt O00408).
T3 construct: His tag (inferred from metal chelate purification); made in house; host or cells: Sf9 insect cells (baculovirus)
The assay is described as follows: In vitro assay PDE2A (SPA, 3H-cGMP hydrolysis). The conditions noted are these: for Emax: read-out: hPDE2A Emax.

Where [4] appears, read: human clone (h), default, read-out: hPDE10A2 Emax.
Setting [5] is: human clone (h), default, read-out: hPDE10A2 pIC50 (converted).
[6] abbreviates: human recombinant PDE2A, 10 μM cGMP substrate, read-out: hPDE2A pIC50 (converted).
Where [7] appears, read: read-out: hPDE2A pIC50 (converted).
[8] abbreviates: human clone by default (no (r) mark), read-out: hPDE10A2 or rPDE10A2 Emax.
Setting [9] is: human clone by default (no (r) mark), read-out: hPDE10A2 or rPDE10A2 pIC50 (converted).

The structures appear in SMILES notation. Counter-ions that a name gives are not always drawn. Like-named read-outs stand apart in the source and are kept apart here. Where only a bound is given, the exact number is not on record here.

T2 sequence (Q14432 whole entry): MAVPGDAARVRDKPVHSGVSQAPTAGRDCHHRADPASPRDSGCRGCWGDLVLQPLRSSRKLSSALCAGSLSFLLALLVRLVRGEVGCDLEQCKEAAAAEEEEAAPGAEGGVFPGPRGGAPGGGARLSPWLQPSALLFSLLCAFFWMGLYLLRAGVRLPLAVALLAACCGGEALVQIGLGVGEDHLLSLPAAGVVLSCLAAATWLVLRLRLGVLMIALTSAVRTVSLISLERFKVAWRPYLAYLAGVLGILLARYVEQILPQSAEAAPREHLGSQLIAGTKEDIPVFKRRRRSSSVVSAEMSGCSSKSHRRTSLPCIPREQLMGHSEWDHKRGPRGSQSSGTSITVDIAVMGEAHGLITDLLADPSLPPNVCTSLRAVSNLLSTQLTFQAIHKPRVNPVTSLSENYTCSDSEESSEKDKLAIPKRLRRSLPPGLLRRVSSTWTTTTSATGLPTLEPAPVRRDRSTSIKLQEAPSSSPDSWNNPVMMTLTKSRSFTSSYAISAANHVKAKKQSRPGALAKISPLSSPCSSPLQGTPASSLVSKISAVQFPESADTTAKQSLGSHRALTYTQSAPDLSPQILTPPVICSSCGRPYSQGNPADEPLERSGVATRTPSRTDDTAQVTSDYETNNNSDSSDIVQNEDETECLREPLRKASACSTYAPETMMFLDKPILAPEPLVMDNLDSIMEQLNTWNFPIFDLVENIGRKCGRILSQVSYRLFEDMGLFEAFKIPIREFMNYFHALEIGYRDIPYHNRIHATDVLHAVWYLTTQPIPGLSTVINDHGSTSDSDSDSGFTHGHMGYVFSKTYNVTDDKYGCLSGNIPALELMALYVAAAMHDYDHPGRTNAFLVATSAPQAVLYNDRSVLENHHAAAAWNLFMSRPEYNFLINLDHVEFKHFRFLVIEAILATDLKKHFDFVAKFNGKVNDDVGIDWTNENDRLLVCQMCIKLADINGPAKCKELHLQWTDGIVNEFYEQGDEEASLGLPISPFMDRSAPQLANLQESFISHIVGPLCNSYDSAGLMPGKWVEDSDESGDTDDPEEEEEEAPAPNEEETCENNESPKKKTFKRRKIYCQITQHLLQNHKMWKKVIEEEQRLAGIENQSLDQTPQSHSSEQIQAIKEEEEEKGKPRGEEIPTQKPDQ
T1 sequence (Q9Y233 267-1055): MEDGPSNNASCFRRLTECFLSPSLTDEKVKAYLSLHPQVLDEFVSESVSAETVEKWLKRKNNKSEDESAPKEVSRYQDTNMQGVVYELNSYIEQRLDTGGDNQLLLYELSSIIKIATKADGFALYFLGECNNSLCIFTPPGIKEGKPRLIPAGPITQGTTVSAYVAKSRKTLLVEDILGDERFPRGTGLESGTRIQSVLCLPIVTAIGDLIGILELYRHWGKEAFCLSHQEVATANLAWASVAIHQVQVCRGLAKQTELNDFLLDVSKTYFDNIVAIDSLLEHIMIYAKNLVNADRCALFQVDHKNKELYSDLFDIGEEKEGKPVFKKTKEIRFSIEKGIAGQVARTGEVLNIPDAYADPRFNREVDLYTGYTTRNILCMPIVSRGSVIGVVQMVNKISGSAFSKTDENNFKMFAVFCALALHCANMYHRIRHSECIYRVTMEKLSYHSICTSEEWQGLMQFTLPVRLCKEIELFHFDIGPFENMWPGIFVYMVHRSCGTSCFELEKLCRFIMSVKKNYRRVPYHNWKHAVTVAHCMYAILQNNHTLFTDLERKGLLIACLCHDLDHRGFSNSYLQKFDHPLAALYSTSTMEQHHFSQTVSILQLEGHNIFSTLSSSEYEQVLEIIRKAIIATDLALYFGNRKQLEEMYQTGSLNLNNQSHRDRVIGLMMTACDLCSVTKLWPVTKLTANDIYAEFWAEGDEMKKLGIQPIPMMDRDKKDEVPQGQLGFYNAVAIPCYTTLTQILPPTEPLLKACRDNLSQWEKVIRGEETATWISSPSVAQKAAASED
T3 sequence (O00408 whole entry): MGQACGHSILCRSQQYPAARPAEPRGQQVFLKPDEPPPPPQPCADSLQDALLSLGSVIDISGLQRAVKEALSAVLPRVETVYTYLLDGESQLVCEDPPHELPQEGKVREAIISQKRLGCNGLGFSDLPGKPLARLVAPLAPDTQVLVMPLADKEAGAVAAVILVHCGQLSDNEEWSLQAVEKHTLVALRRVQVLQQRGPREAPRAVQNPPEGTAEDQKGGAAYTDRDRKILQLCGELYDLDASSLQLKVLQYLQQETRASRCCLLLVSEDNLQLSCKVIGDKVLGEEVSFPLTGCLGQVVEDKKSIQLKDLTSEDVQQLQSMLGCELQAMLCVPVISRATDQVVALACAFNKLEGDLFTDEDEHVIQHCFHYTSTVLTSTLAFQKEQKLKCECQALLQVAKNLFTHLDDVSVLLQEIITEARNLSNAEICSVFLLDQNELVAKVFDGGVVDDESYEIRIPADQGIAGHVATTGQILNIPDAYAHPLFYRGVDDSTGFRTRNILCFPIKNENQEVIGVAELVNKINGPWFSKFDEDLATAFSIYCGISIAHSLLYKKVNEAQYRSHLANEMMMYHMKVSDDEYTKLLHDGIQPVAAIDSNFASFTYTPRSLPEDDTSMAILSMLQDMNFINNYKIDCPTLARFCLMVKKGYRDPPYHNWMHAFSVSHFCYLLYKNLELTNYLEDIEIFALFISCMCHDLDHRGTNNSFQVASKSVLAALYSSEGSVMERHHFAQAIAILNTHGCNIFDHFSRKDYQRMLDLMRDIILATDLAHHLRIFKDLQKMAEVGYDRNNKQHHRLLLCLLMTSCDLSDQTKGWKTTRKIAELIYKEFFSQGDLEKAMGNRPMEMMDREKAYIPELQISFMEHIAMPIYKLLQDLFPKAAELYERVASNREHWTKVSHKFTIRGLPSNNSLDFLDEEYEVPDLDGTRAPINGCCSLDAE

A word on the Emax: it is the greatest response seen or fitted, relative to the assay's reference. Consider `C[C@@H]1CCN(C(=O)c2cccc(C(F)(F)F)c2F)C[C@H]1c1cc(C(F)F)nc2ncnn12` [Compound 148], for which the maximal effect (Emax) in assay [1] (setting [4]) worked out at 89%; in assay [2], 67%; in assay [3] (human recombinant PDE2A) it was 101%; in assay [3] it was 101%. In addition, the IC50 in assay [1] (setting [5]) was 0.912 µM; in assay [2], 5.62 µM; in assay [3] (setting [6]) it was 0.0389 µM; in assay [3] (setting [7]) it was 0.0389 µM.

In the case of `Cn1ccc2cc(C(=O)N3[C@H]4CC[C@H](c5cc(C(F)F)nc6ncnn56)[C@@H]3CC4)cc(F)c21` [Compound 374], the Emax in assay [1] (setting [8]) came to 98%; in assay [2] it was 97%; in assay [3], 100%. Further, the IC50 in assay [1] (setting [9]) is 0.182 µM; in assay [2], 0.741 µM; in assay [3] (setting [7]) it was 0.000741 µM.

Regarding `CCCOc1cccnc1C(=O)N1CC[C@@H](C)[C@H](c2cc(C(F)F)nc3ncnn23)C1` [Compound 246], the Emax in assay [1] (setting [4]) is 44%; in assay [1] (setting [8]) it was 44%; in assay [2], 25%; in assay [3], 98%. In addition, the IC50 in assay [1] (setting [5]) was > 10 µM; in assay [1] (setting [9]) it was > 10 µM; in assay [2], > 10 µM; in assay [3] (setting [7]), 0.126 µM.

With `C[C@@H]1CCN(C(=O)c2cc3n(n2)CCO3)C[C@H]1c1cc(C(F)F)nc2ncnn12` [Compound 166], the maximal response (Emax) in assay [1] (setting [4]) came out at 81%; in assay [2], 32%; in assay [3] (human recombinant PDE2A), 98%; in assay [3], 98%. Besides, the IC50 in assay [1] (setting [5]) is 2.24 µM; in assay [2], > 10 µM; in assay [3] (setting [6]), 0.0933 µM; in assay [3] (setting [7]), 0.0933 µM.

For `C[C@@H]1CCN(C(=O)c2csc(N)n2)C[C@H]1c1cc(C(F)F)nc2ncnn12` [Compound 158], the Emax worked out at 78% in assay [1] (setting [4]), 19% in assay [2], 100% in assay [3] (human recombinant PDE2A) and 100% in assay [3]. The IC50 was 2.14 µM in assay [1] (setting [5]), > 10 µM in assay [2], 0.0646 µM in assay [3] (setting [6]) and 0.0646 µM in assay [3] (setting [7]).

On to `Cc1csc(C(=O)N2CC[C@@H](C)[C@H](c3cc(C(F)F)nc4ncnn34)C2)c1Cl` [Compound 147], for which the Emax in assay [1] (setting [4]) is 90%; in assay [2], 81%; in assay [3] (human recombinant PDE2A), 100%; in assay [3] it was 100%. The IC50 in assay [1] (setting [5]) is 0.871 µM; in assay [2] it was 2.24 µM; in assay [3] (setting [6]) it was 0.038 µM; in assay [3] (setting [7]) it was 0.038 µM.

`C[C@@H]1CCN(C(=O)c2ncc(C#N)cc2Cl)C[C@H]1c1cc(C(F)F)nc2ncnn12` [Compound 238]: the maximal effect (Emax) worked out at 48% in assay [1] (setting [4]); 48% in assay [1] (setting [8]); 35% in assay [2]; 94% in assay [3] (human recombinant PDE2A); 94% in assay [3]. In addition, the IC50 was > 10 µM in assay [2], 0.38 µM in assay [3] (setting [6]) and 0.38 µM in assay [3] (setting [7]).

In the case of `Cc1cc(C(=O)N2CC[C@@H](C)[C@H](c3cc(C(F)F)nc4ncnn34)C2)c(C)s1` [Compound 65], the Emax worked out at 95% in assay [1] (setting [4]), 70% in assay [2], 100% in assay [3] (human recombinant PDE2A) and 100% in assay [3]. For the same molecule, the IC50 is 0.251 µM in assay [1] (setting [5]), 6.76 µM in assay [2], 0.00126 µM in assay [3] (setting [6]) and 0.00126 µM in assay [3] (setting [7]).

Regarding `C[C@@H]1CCN(C(=O)c2ccc(C(F)(F)F)nc2Cl)C[C@H]1c1cc(C(F)F)nc2ncnn12` [Compound 242], the Emax turned out to be 56% in assay [1] (setting [4]); 56% in assay [1] (setting [8]); 67% in assay [2]; 97% in assay [3] (human recombinant PDE2A); 97% in assay [3]. Moreover, the IC50 was 8.13 µM in assay [1] (setting [5]); 8.13 µM in assay [1] (setting [9]); 6.17 µM in assay [2]; 0.135 µM in assay [3] (setting [6]); 0.135 µM in assay [3] (setting [7]).

Regarding `Cc1cc(C(=O)N2CC[C@H](C)[C@@H](c3cc(C(F)F)nc4ncnn34)C2)cc(C)n1` [220 (•HCl)], the values for the Emax in assay [1] (setting [4]) and in assay [3] were 27% and 54%, respectively. For the same molecule, the IC50 is > 10 µM in assay [1] (setting [5]) and 0.977 µM in assay [3] (hPDE2A pIC50, human recombinant PDE2A, 10 μM cGMP substrate).

The values above are taken from patent publication US10947242B2, “[1,2,4]triazolo[1,5and#8208;A]pyrimidine compounds as PDE2 inhibitors” (Janssen Pharmaceutica NV, priority 2016, dated 2021).
